Data from US5859037A, “Sulfonylurea-glitazone combinations for diabetes” (Warner-Lambert Company, priority 1997, dated 1999).
Read-outs that look alike come from different tables or passages of the source.

What was measured:
[1] = test system: total insulin and C-peptide; experiment: Fasting total insulin and C-peptide in 52-week clinical study; type: in vivo, patients; details: for C-Peptide, Adjusted Mean Change From Baseline (SE) / Total Insulin, Adjusted Mean Change From Baseline (SE) / C-Peptide, Adjusted Mean Difference From Glyburide / Total Insulin, Adjusted Mean Difference From Glyburide: ITT, Week 52; for C-Peptide, Adjusted Mean Difference From Glyburide / Total Insulin, Adjusted Mean Difference From Glyburide: *p ≤ 0.05
Procedure: This was a 12-month, double-blind, randomized, parallel-group, active-control, multicenter study design (FIG. 1). […] Secondary efficacy parameters included markers of glycemic homeostasis (insulin and C-peptide) and markers of lipid metabolism (total cholesterol, total triglycerides, HDL, VLDL, LDL (measured), free fatty acids, Lp(a), Apo A1, and Apo B). Efficacy analysis was performed on 2 patient populations, intent-to-treat and completers. […] Patients withdrawing from the study before Week 52 were included in the analysis using the LOCF procedure; the last measurement on treatment was substituted for the missing Week 52 measurement. The intent-to-treat patient sample was the primary sample for assessing efficacy. Completers comprised patients in the intent-to-treat sample who completed Week 52. The analysis of change from baseline to Week 52 was performed using analysis of covariance (ANCOVA). The primary model included effects due to treatment and center and baseline as covariate. Treatment-by-baseline and treatment-by-center interactions were also examined in supplemental models.

[2] = test system: lipid parameters (markers of lipid metabolism); experiment: Fasting serum lipid profile in 52-week clinical study; type: in vivo, patients; details: for LDL Cholesterol, Change From Baseline, Mean / LDL Cholesterol, Change From Baseline, Median / Total Cholesterol, Change From Baseline, Mean / Total Cholesterol, Change From Baseline, Median / Apo A1, Change From Baseline, Mean / Apo B, Change From Baseline, Mean / Free Fatty Acids, Change From Baseline, Mean / Free Fatty Acids, Change From Baseline, Median / HDL Cholesterol, Change From Baseline, Mean / HDL Cholesterol, Change From Baseline, Median / LP(a), Change From Baseline, Mean / Triglycerides, Change From Baseline, Mean / Triglycerides, Change From Baseline, Median / VLDL Cholesterol, Change From Baseline, Mean / VLDL Cholesterol, Change From Baseline, Median: ITT, Week 52; for LDL adjusted mean increase, difference from glyburide / total cholesterol adjusted mean increase, difference from glyburide: Month 12
Procedure: After an initial screening visit, patients meeting the inclusion criteria entered a 4-week baseline phase (unblinded) in which they received 12 mg micronized glyburide (6 mg BID).
Secondary efficacy parameters included markers of glycemic homeostasis (insulin and C-peptide) and markers of lipid metabolism (total cholesterol, total triglycerides, HDL, VLDL, LDL (measured), free fatty acids, Lp(a), Apo A1, and Apo B).
Efficacy analysis was performed on 2 patient populations, intent-to-treat and completers. […] Patients withdrawing from the study before Week 52 were included in the analysis using the LOCF procedure; the last measurement on treatment was substituted for the missing Week 52 measurement. The intent-to-treat patient sample was the primary sample for assessing efficacy. Completers comprised patients in the intent-to-treat sample who completed Week 52.
Summary statistics for baseline, follow-up (post-randomization), and change from baseline in secondary efficacy parameters were computed by treatment group and visit. For each patient, the baseline measurements for insulin, C-peptide, blood pressure, total cholesterol, triglycerides, LDL, HDL, VLDL, and free fatty acids were defined as the measurement at Week 0. In order to reduce variability, the baseline Apo A, Apo B, and Lp(a) levels were defined as the average of the respective measurements at Weeks -1 and 1. Similarly, the end-of-treatment Apo A, Apo B, and Lp(a) measurements were defined as the average of the respective measurements at Weeks 48 and 52. Averages from Weeks 20 and 24 were not carried forward for these special lipid parameters.
Fasting serum lipid profiles were determined at baseline and periodically through Week 52. Apo A1, Apo B, and Lp(a) were determined only at baseline, Month 6, and Month 12 as part of a special laboratory panel.

[3] = test system: postprandial glucose tolerance; experiment: 2-hour meal tolerance test (postprandial glucose, insulin, C-peptide AUC); type: in vivo, patients; details: Month 12, vs glyburide, p ≤0.05; all combination doses and 600 mg troglitazone monotherapy
Procedure: The effect of treatment on the pattern of postprandial glucose tolerance (standard 2-hour meal tolerance test) was determined in a subset of patients.
A 2-hour meal tolerance test to assess postprandial glucose and insulin excursions in response to a premeasured meal (breakfast) was conducted in a subset of patients at baseline, Week 24, and at the end of treatment. […] Additional parameters included total insulin and C-peptide. Analyses of the meal tolerance parameters were based on observations at the end of treatment; observations from Week 24 were not carried forward.
Summary statistics for glucose, insulin, and C-peptide levels every 30 minutes for 2 hours were provided at baseline, and Months 6 and 12.
The change from baseline in each response variable was compared between treatment groups using analysis of covariance. The analysis included all patients who had baseline and Month 12 test data. The primary model included effects due to treatment and center and baseline as covariate. The 95% confidence interval for the treatment difference based on the primary model was provided for each pairwise comparison of treatment groups.
Meal tolerance testing was performed in a subset of patients at baseline and at Months 6 and 12. Postprandial glucose, insulin, and C-peptide levels were determined at 30, 60, 90, and 120 minutes after a standard meal (Sustacal HC) (Table 13).

[4] = patients studied to date; cited from earlier work
[5] = Trough plasma concentrations of troglitazone; type: in vivo, patients; details: Week 12; for concentration at 2016 h: human, plasma, po, alone or + glyburide, read-out: Mean (% RSD) Trough Plasma Concentration of Troglitazone
Procedure: Trough plasma concentrations of troglitazone were determined at Week 12. Blood samples (7 mL) were collected in heparinized glass tubes. Following centrifugation, plasma samples were transferred to plastic tubes and stored at -20° C. until assayed. Plasma samples were assayed at Corning Hazleton, Inc., PO Box 7545, Madison, Wis., 53707, using a validated liquid chromatographic method with electrochemical detection. The minimum quantitation limit for troglitazone was 5 ng/mL. Concentrations below the limit of quantitation were reported as zero. The analysts remained blinded to the treatment randomization code during sample analysis.

[6] = glyburide monotherapy (active control)
[7] = troglitazone 200 mg, or 200 mg/12 mg in combination
[8] = troglitazone 400 mg, or 400 mg/12 mg in combination
[9] = troglitazone 600 mg, or 600 mg/12 mg in combination
[10] = Week 52, compared with glyburide

COc1ccc(Cl)cc1C(=O)NCCc1ccc(S(=O)(=O)NC(=O)NC2CCCCC2)cc1 [Glyburide]
C-Peptide, Adjusted Mean Change From Baseline (SE) [1, 6]: -0.67 (0.07) ng/mL | Total Insulin, Adjusted Mean Change From Baseline (SE) [1, 6]: -1.45 (1.39) μIU/mL | LDL Cholesterol, Change From Baseline, Mean ([2]; Glynase (active control)): 3.49 mg/dL | LDL Cholesterol, Change From Baseline, Median ([2]; Glynase (active control)): 4.00 mg/dL | Total Cholesterol, Change From Baseline, Mean ([2]; Glynase (active control)): 6.17 mg/dL | Total Cholesterol, Change From Baseline, Median ([2]; Glynase (active control)): 6.50 mg/dL | Apo A1, Change From Baseline, Mean [2, 6]: -1.1 mg/dL | Apo B, Change From Baseline, Mean [2, 6]: 2.9 mg/dL | Free Fatty Acids, Change From Baseline, Mean [2, 6]: -0.05 mEq/L | Free Fatty Acids, Change From Baseline, Median [2, 6]: 0.03 mEq/L | HDL Cholesterol, Change From Baseline, Mean [2, 6]: -0.15 mg/dL | HDL Cholesterol, Change From Baseline, Median [2, 6]: -1.00 mg/dL | LP(a), Change From Baseline, Mean [2, 6]: 1.4 mg/dL | Triglycerides, Change From Baseline, Mean [2, 6]: 14.24 mg/dL | Triglycerides, Change From Baseline, Median [2, 6]: 8.00 mg/dL | VLDL Cholesterol, Change From Baseline, Mean [2, 6]: -2.78 mg/dL | VLDL Cholesterol, Change From Baseline, Median [2, 6]: -1.00 mg/dL | Triglycerides, Change From Baseline, Mean ([2]; glyburide monotherapy (active control), listed as glyburide): 14 mg/dL

Cc1c(C)c2c(c(C)c1O)CCC(C)(COc1ccc(CC3SC(=O)NC3=O)cc1)O2 (stereo not shown) [Troglitazone]
C-Peptide, Adjusted Mean Change From Baseline (SE) [1, 7]: -0.96 (0.07) ng/mL | Total Insulin, Adjusted Mean Change From Baseline (SE) [1, 7]: -8.41 (1.39) μIU/mL | C-Peptide, Adjusted Mean Difference From Glyburide [1, 7]: 0.29 ng/mL | Total Insulin, Adjusted Mean Difference From Glyburide [1, 7]: -6.96 μIU/mL | C-Peptide, Adjusted Mean Change From Baseline (SE) [1, 8]: -0.78 (0.07) ng/mL | Total Insulin, Adjusted Mean Change From Baseline (SE) [1, 8]: -5.90 (1.40) μIU/mL | C-Peptide, Adjusted Mean Difference From Glyburide [1, 8]: -0.11 ng/mL | Total Insulin, Adjusted Mean Difference From Glyburide [1, 8]: -4.44 μIU/mL | C-Peptide, Adjusted Mean Change From Baseline (SE) [1, 9]: -1.01 (0.08) ng/mL | Total Insulin, Adjusted Mean Change From Baseline (SE) [1, 9]: -11.53 (1.42) μIU/mL | C-Peptide, Adjusted Mean Difference From Glyburide [1, 9]: 0.34 ng/mL | Total Insulin, Adjusted Mean Difference From Glyburide [1, 9]: -10.07 μIU/mL | C-peptide (result in words) [1, 10]: Significant (p≤0.05) decreases in C-peptide were observed for troglitazone monotherapy only (200 and 600 mg troglitazone) | total insulin (result in words) [1, 10]: significant (p≤0.05) decrease in total insulin compared with glyburide | total insulin, completers (result in words) ([1]; completers, 400 and 600 mg troglitazone, p<0.05 vs glyburide): decreases in total insulin that were significantly different from glyburide (p<0.05) | mean glucose AUC(0-2 hr) (result in words) [3]: decreased significantly (p ≤0.05) compared with glyburide | hypoglycemia (result in words) [4]: has not caused hypoglycemia | trough plasma troglitazone concentrations (result in words) ([5]; dose dependence, mono versus combination): Mean trough troglitazone concentrations generally increased with increasing troglitazone doses | concentration at 2016 h ([5]; 200 mg QD): 145 ng/mL | concentration at 2016 h ([5]; 400 mg QD): 238 ng/mL | concentration at 2016 h ([5]; 600 mg QD): 285 ng/mL | HDL adjusted mean change, difference from glyburide ([2]; 600 mg troglitazone monotherapy, p<0.05): 4.9 mg/dL | Apo A1, Change From Baseline, Mean [2, 7]: 1.9 mg/dL | Apo B, Change From Baseline, Mean [2, 7]: 6.4 mg/dL | Free Fatty Acids, Change From Baseline, Mean [2, 7]: -0.09 mEq/L | Free Fatty Acids, Change From Baseline, Median [2, 7]: -0.04 mEq/L | HDL Cholesterol, Change From Baseline, Mean [2, 7]: 0.86 mg/dL | HDL Cholesterol, Change From Baseline, Median [2, 7]: 1.00 mg/dL | LDL Cholesterol, Change From Baseline, Mean [2, 7]: 17.78 mg/dL | LDL Cholesterol, Change From Baseline, Median [2, 7]: 20.50 mg/dL | LP(a), Change From Baseline, Mean [2, 7]: 8.8 mg/dL | Total Cholesterol, Change From Baseline, Mean [2, 7]: 19.96 mg/dL | Total Cholesterol, Change From Baseline, Median [2, 7]: 21.00 mg/dL | Triglycerides, Change From Baseline, Mean [2, 7]: -35.77 mg/dL | Triglycerides, Change From Baseline, Median [2, 7]: 3.50 mg/dL | VLDL Cholesterol, Change From Baseline, Mean [2, 7]: 3.54 mg/dL | VLDL Cholesterol, Change From Baseline, Median [2, 7]: 3.50 mg/dL | Apo A1, Change From Baseline, Mean [2, 8]: -1.5 mg/dL | Apo B, Change From Baseline, Mean [2, 8]: 3.4 mg/dL | Free Fatty Acids, Change From Baseline, Mean [2, 8]: -0.17 mEq/L | Free Fatty Acids, Change From Baseline, Median [2, 8]: -0.12 mEq/L | HDL Cholesterol, Change From Baseline, Mean [2, 8]: 2.99 mg/dL | HDL Cholesterol, Change From Baseline, Median [2, 8]: 3.00 mg/dL | LDL Cholesterol, Change From Baseline, Mean [2, 8]: 12.09 mg/dL | LDL Cholesterol, Change From Baseline, Median [2, 8]: 11.00 mg/dL | LP(a), Change From Baseline, Mean [2, 8]: 10.0 mg/dL | Total Cholesterol, Change From Baseline, Mean [2, 8]: 24.78 mg/dL | Total Cholesterol, Change From Baseline, Median [2, 8]: 20.00 mg/dL | Triglycerides, Change From Baseline, Mean [2, 8]: -3.86 mg/dL | Triglycerides, Change From Baseline, Median [2, 8]: -2.00 mg/dL | VLDL Cholesterol, Change From Baseline, Mean [2, 8]: 8.48 mg/dL | VLDL Cholesterol, Change From Baseline, Median [2, 8]: 3.00 mg/dL | Apo A1, Change From Baseline, Mean [2, 9]: -1.9 mg/dL | Apo B, Change From Baseline, Mean [2, 9]: 3.1 mg/dL | Free Fatty Acids, Change From Baseline, Mean [2, 9]: -0.19 mEq/L | Free Fatty Acids, Change From Baseline, Median [2, 9]: -0.11 mEq/L | HDL Cholesterol, Change From Baseline, Mean [2, 9]: 4.53 mg/dL | HDL Cholesterol, Change From Baseline, Median [2, 9]: 3.00 mg/dL | LDL Cholesterol, Change From Baseline, Mean [2, 9]: 16.21 mg/dL | LDL Cholesterol, Change From Baseline, Median [2, 9]: 15.00 mg/dL | LP(a), Change From Baseline, Mean [2, 9]: 9.1 mg/dL | Total Cholesterol, Change From Baseline, Mean [2, 9]: 25.88 mg/dL | Total Cholesterol, Change From Baseline, Median [2, 9]: 20.50 mg/dL | Triglycerides, Change From Baseline, Mean [2, 9]: -9.59 mg/dL | Triglycerides, Change From Baseline, Median [2, 9]: -24.00 mg/dL | VLDL Cholesterol, Change From Baseline, Mean [2, 9]: -0.36 mg/dL | VLDL Cholesterol, Change From Baseline, Median [2, 9]: -3.00 mg/dL | LDL adjusted mean increase, difference from glyburide ([2]; 200 mg, p<0.05): 23 mg/dL | total cholesterol adjusted mean increase, difference from glyburide ([2]; 200 mg, p<0.05): 25 mg/dL | total cholesterol adjusted mean increase, difference from glyburide ([2]; 400 mg, p<0.05): 26 mg/dL | LDL adjusted mean increase, difference from glyburide ([2]; 600 mg, p<0.05): 19 mg/dL | total cholesterol adjusted mean increase, difference from glyburide ([2]; 600 mg, p<0.05): 28 mg/dL | atherogenic risk / lipid profile (result in words) ([2]; mono- or combination therapy): do not negatively impact atherogenic risk
